For test [1], the system named is Fusarium virguliforme. Description: Fungal growth inhibition assay, Fusarium virguliforme. The test is classed as cell-based. The settings on record: 48 hours, read-out: F. virguliforme % growth inhibition at 48 hours. The procedure: (§1) Spores were isolated from previously sub-cultured plates of Botrytis cinerea, Phytophthora capsici, Fusarium moniliforme, Fusarium viguliforme, Collectotrichum graminicola, and Diplodia maydis. All spores were filtered and collected in a sterile glass bowl to isolate the spores from the mycelia. The isolation and sub-culture plate condition for each pathogen is described below.
Spore isolation for F. virguliforme: A 2-3 week old PDA (pre-mix) plate containing cefotaxime (100 mg/L) and kanamycin (50 mg/L) was removed from 26° C. incubator with a light/dark 12 hour cycle and the mycelia were treated with 5-10 ml of filter sterilized distilled water. The mycelia were scraped to re-suspend the spores. The spores were then collected in a sterile filter bowl containing a fluted piece of filter paper and poured into a conical tube.
(§2) After spore isolation, pathogen spores were counted on a hemocytometer to calculate the spores/ml. In 17% V8 liquid media containing 3 g/L CaCO3, isolated spores were diluted to individual concentrations based on the growth curves at 48 hours of each pathogen. The spore concentrations for each pathogen were as follows: B. cinerea—10,000 sp/ml; P. capsici—300 sp/ml; F. monliforme—500 sp/ml; F. virguliforme—500 sp/ml; C. graminicola—3,000 sp/ml; and D. maydis—3,000 sp/ml.
(§3) Chemistry stocks were dissolved in DMSO at 2.5 mg/ml. Chemistry was diluted in a 96-well stock plate in five-fold dilutions to obtain a final concentration of 50, 10, and 2 ppm in vitro. The final concentration of the positive control after the five-fold dilutions was as follows: soraphen—0.5, 0.1, and 0.02 ppm. Negative controls on each plate included 2% DMSO, water containing spores and media, and a blank for background subtraction.
(§4) In a 96-well plate the spore solution, chemistries, and controls were combined to make the final solution concentrations mentioned above. Upon addition of the chemistry, an OD600 reading was done to assess chemical precipitation. The 96-well plates were incubated in plastic tubs containing wet paper towels under the following conditions, 25° C. in the dark for P. capsici and B. cinerea or 26° C. with light/dark cycle for C. graminicola, D. maydis, F. virguliforme, F. monliforme. Plate readings were repeated at 24 and 48 hrs. Visual ratings were performed at 24 and 48 hrs to check for precipitation and confirm efficacy. Visual and OD600 ratings of the chemistry at 48 hours were compared to the 2% DMSO control to determine the percent of pathogen growth inhibition.

Test [2] has as its system Diplodia maydis. Kind of test: Fungal growth inhibition assay, Diplodia maydis. The test is classed as cell-based. The settings on record: 48 hours, read-out: D. maydis % growth inhibition at 48 hours. The procedure: as §1
Spore isolation for D. maydis: A 3-4 week old PDA (pre-mix) plate was removed from 26° C. incubator with a light/dark 12 hour cycle and the mycelia were treated with 6-7 ml of sterile distilled water, scraped into a sterile petri dish, and smashed to open the pycnidia. The spores were then collected in a sterile filter bowl containing a fluted piece of filter paper and poured into a conical tube.
as §2, §3, §4

In test [3] the test system is Collectotrichum graminicola. Description: Fungal growth inhibition assay, Collectotrichum graminicola. The test is classed as cell-based. The settings on record: Colletotrichum graminicola, 48 hours, read-out: C. graminicola % growth inhibition at 48 hours. The procedure:
as §1
Spore isolation for C. graminicola: A 1-2 week old oatmeal agar (pre-mix) plate was removed from 26° C. incubator with a light/dark 12 hour cycle and the mycelia were treated with 10-15 ml of filter sterilized distilled water. The mycelia were scraped to re-suspend the spores. The spores were then collected in a sterile filter bowl containing a piece of sterile cheesecloth and poured into a conical tube.
as §2, §3, §4

The target in test [4] is Ustilago maydis acetyl CoA carboxylase (ACCase) (Mycosarcoma maydis (Ustilago maydis), UniProt A0A0D1DYD5). Kind of test: ACCase enzymatic assay (coupled PK/LDH, NADH OD340). The test is classed as biochemical. The procedure: Ustilago maydis acetyl CoA carboxylase (ACCase) was cloned, expressed, and purified as described (Weatherly et al, Biochem. J., 2004) and the test compounds were tested in a 96-well plate format. Primary in vitro screening consisted of obtaining dose response data at 100, 33, 10, and 1 μM inhibitor. Actives in the primary screen were re-tested to establish IC50 values.
Chain of Ustilago maydis acetyl CoA carboxylase (ACCase) (A0A0D1DYD5 1-2185): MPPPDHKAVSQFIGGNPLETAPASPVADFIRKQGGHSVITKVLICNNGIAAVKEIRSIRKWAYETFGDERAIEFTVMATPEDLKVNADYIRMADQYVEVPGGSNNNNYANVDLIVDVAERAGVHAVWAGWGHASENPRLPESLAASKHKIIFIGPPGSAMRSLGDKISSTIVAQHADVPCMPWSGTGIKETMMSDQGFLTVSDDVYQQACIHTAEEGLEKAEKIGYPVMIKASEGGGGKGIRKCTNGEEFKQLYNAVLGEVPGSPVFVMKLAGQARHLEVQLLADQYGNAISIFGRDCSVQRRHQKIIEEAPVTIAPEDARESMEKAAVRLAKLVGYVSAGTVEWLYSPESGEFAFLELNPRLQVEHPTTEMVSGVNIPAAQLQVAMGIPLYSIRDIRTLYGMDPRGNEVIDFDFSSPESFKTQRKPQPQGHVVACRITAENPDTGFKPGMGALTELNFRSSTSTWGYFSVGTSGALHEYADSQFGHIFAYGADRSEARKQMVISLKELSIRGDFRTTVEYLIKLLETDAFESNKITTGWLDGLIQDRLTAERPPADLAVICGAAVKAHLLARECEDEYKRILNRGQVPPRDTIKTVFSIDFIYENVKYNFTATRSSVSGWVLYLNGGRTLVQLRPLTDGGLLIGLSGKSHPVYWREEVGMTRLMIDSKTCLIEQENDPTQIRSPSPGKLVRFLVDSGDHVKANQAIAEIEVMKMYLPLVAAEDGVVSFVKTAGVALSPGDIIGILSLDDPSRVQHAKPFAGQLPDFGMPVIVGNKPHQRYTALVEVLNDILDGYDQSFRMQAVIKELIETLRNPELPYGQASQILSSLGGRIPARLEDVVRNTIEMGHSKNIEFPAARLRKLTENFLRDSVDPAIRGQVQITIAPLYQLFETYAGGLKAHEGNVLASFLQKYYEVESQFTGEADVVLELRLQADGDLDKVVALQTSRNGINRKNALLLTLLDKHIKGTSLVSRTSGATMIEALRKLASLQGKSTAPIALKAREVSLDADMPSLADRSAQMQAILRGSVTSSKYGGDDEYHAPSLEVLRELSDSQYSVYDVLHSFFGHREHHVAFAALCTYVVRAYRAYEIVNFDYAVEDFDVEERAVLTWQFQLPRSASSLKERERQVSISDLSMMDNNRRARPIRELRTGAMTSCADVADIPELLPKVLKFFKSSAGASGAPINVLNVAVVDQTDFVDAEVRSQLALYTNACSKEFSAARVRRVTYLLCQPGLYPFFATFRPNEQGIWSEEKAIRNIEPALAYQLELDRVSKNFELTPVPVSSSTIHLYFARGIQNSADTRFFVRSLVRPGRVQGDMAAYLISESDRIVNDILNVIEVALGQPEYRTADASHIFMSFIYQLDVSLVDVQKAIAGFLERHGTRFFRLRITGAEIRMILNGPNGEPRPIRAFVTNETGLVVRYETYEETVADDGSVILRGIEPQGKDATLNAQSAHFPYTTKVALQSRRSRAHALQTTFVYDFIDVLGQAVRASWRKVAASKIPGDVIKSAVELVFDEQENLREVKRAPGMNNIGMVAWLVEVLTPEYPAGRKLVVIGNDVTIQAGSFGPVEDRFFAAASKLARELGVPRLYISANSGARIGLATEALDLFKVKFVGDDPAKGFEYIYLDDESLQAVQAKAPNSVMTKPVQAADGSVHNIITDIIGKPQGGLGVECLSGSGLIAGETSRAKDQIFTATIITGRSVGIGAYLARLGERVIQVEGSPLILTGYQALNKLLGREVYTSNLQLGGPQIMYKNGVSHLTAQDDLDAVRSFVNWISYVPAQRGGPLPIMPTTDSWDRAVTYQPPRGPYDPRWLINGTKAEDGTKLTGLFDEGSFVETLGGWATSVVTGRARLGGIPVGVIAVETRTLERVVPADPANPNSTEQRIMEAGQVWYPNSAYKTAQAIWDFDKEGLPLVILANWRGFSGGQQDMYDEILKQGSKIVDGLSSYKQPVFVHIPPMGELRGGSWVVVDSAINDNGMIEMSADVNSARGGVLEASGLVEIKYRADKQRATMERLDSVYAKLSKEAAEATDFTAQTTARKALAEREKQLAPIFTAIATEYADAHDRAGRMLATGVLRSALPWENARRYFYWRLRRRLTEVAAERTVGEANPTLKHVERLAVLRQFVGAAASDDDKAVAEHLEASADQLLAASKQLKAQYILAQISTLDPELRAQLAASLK
Direct detection of the conversion of acetyl CoA to malonyl CoA by ACCase was not feasible, but during this process ATP is converted to ADP which allowed for detection through a standard reaction coupling with ADP recycling to the oxidation of NADH. Thus, ACCase activity was measured via kinetic OD340 measurements of the conversion of NADH to NAD in a coupled reaction involving the conversion of phosphoenolpyruvate (PEP) to lactate.
The complete 200 ul reaction mixture contained 52.5 mM HEPES (pH8), 2.625 mM MgCl2, 1 mM ATP, 0.525 mM DTT, 11 mM NaHCO3, 1% DMSO with or without inhibitor, 1× pyruvate kinase/lactate dehydrogenase (PK/LDH), 0.3 mM NADH, 0.5 mM PEP, and 5 μg ACCase. The reactions were incubated at 30° C. for 10 minutes and then initiated by the addition of 0.33 mM acetyl CoA. The initiated reactions were read immediately via plate reader at OD340 and kinetic readings were acquired every 20 s for 15 minutes while keeping the temperature at 30° C.
A slope of the kinetic curve was determined by using the 2 to 7 minute data which was then calculated as percent inhibition relative to the no inhibitor control.
The primary screens were conducted in duplicate and the IC50's conducted in triplicate. Averages were reported along with standard deviation calculation to generate error bars.
Each plate contained its own controls and consisted of a DMSO only control, 5-fold titration series of soraphen from 2 μM to 3.2 nM, and an ADP coupled reaction control.

Test [5] relates to Botrytis cinerea. Kind of test: Fungal growth inhibition assay, Botrytis cinerea. The settings on record: 48 hours, read-out: B. cinerea % growth inhibition at 48 hours. The test is classed as cell-based.
From the text: as §1
Spore isolation for B. cinerea: A 2-3 week old V8 (17%)+CaCO3 (3 g/L)+20 g agar plate was removed from room temperature and the mycelia were treated with 5-10 ml of filter sterilized Triton X 100 (.05%). The mycelia were scraped to re-suspend the spores. The spores were then collected in a sterile filter bowl containing a fluted piece of filter paper and poured into a conical tube.
as §2, §3, §4

Test [6] concerns Saccharomyces cerevisiae. Kind of test: Yeast growth inhibition assay. Format: cell-based. The procedure: Yeast cells (Ade2 strain) were grown in liquid YPD (1% yeast extract, 2% peptone, 2% dextrose) for 16 hours at 30° C. from previously sub-cultured plates of Saccharomyces cerevisiae. The OD600 of the overnight culture was checked via spectrophotometer and diluted to a concentration of 2×10^4 cells/ml.
Chemistry stocks were dissolved in DMSO to a concentration of 10 mM. Chemistry stocks were further diluted in a 96-well stock plate to obtain final concentrations of 100, 33, 10 and 1 μM in 1% DMSO. The final concentrations of the soraphen positive controls were 400, 40, and 3.2 nM. The negative controls on each plate included a background subtraction control containing yeast and 1% DMSO (without chemistry) and a second contamination control containing YPD (with no yeast) and 1% DMSO (without chemistry).
98 μl liquid YPD was added to 2 μl diluted stock of DMSO per well and mixed thoroughly. After mixing, 100 μl of the diluted yeast solution was added to bring the final yeast concentration to 1×10^4 cells/ml or 2000 cells per well. An initial spectrophotometric reading at OD600 was conducted on the entire plate and served as the 0 hour time point used to subtract any background. […] […] […] All experiments were conducted in triplicate. Averages were reported along with standard deviation calculation to generate error bars. Each plate contained its own controls and consisted of inoculated+DMSO, non-inoculated+DMSO, and a titration series of soraphen at 400, 40, and 3.2 nM.

Test [7] relates to Phytophthora capsici. Description: Fungal growth inhibition assay, Phytophthora capsici. Format: cell-based. The settings on record: 48 hours, read-out: P. capsici % growth inhibition at 48 hours.
From the text: as §1
Spore isolation for P. capsici: Three to five days prior to the assay a 2-3 week old V8 (17%)+CaCO3 (3 g/L)+20 g agar plate was removed from a dark 25° C. incubator and cut up into small chunks. One plate was separated into two deep well plates and rinsed with sterile distilled water three times. The cut up pieces were incubated under light in a sterile filter hood with 25 ml of sterile distilled water. On the day of the assay the water was removed and 5-7 ml of fresh sterile distilled water was added. One plate was incubated at 4° C. for 45-60 minutes and then placed at room temperature for about 45-60 minutes. The spores were collected in a sterile filter bowl containing a fluted piece of filter paper. The spores were vortexed in a conical tube for 30-60 seconds to remove the flagella of the zoospores after isolation.
as §2, §3, §4

The mark [8] stands for this setting: Table 1A, values marked a are a result of two or more experiments, read-out: ACCase Inhibitory Activity IC50.

pIC50: −log10 of the molar value. Where “and” joins values, the source holds several entries; their conditions need not be identical. Identical values can stand only once. Like-named read-outs stand apart in the source and are kept apart here.

For the compound `N#Cc1c(-c2cccs2)cc(-c2cccs2)nc1SC(C(=O)O)c1ccccc1` (racemic) [Formula Ia-iii, 2-((3-cyano-4,6-di(thiophen-2-yl)pyridin-2-yl)thio)-2-phenylacetic acid], the inhibition at 2 ppm is 2% in test [1], 0% in test [2] and 27% in test [3]. Besides, the figures for the inhibition at 10 ppm in test [1], in test [2] and in test [3] were 84%, 87% and 98%, respectively. Besides, the inhibition at 50 ppm was found to be 90% in test [1] (50 ppm), 82% in test [2] and 91% in test [3].

As to `COc1ccc(-c2cc(-c3cccs3)nc(SC(C(=O)O)c3ccccc3)c2C#N)cc1` (racemic) [Formula Ia-xiv, 2-((3-cyano-4-(4-methoxyphenyl)-6-(thiophen-2-yl)pyridin-2-yl)thio)-2-phenylacetic acid], in test [4] (Table 1B, racemate vs single enantiomers, read-out: ACCase Inhibitory Activity of Racemic Mixtures and Single Enantiomers IC50), the pIC50 was 7.04 and 6.85. Also, in test [5], the inhibition at 2 ppm is 14% and the inhibition at 10 ppm is 8%. Further, in test [3], the inhibition at 2 ppm worked out at 6%, the inhibition at 10 ppm worked out at 32% and the inhibition at 50 ppm came out at 79%.

On to `N#Cc1c(C(F)(F)F)cc(-c2ccc(Br)cc2)nc1SC(C(=O)O)c1ccccc1` (stereo not drawn) [Formula Ia-x, 2-((6-(4-bromophenyl)-3-cyano-4-(trifluoromethyl)pyridin-2-yl)thio)-2-phenylacetic acid], for which, in test [4] (setting [8]), the pIC50 was 5.71. Moreover, in test [5], the inhibition at 2 ppm was found to be 0%, the inhibition at 10 ppm is 12% and the inhibition at 50 ppm turned out to be 25%. The inhibition at 3.7 µM in test [6] (read-out: S. cerevisiae % growth inhibition at 48 hours, 3.7 μM) is 12%. The inhibition at 11.1 µM in test [6] (read-out: S. cerevisiae % growth inhibition at 48 hours, 11.1 μM) is 13%. Also, in test [6] (read-out: S. cerevisiae % growth inhibition at 48 hours, 33.3 μM), the inhibition at 33.3 µM turned out to be 46%. Further, in test [6] (read-out: S. cerevisiae % growth inhibition at 48 hours, 100 μM), the inhibition at 100 µM is 99%.

On to `N#Cc1c(-c2ccccc2)cc(-c2ccccc2)nc1SC(C(=O)O)c1ccccc1` (stereo not drawn) [Formula Ia-xii, 2-((3-cyano-4,6-diphenylpyridin-2-yl)thio)-2-phenylacetic acid], for which, in test [4] (setting [8]), the pIC50 is 6.58. Besides, the inhibition at 2 ppm was 16% in test [7] (2 ppm), 0% in test [5], 42% in test [2] and 6% in test [3]. The inhibition at 10 ppm in test [7] (10 ppm) came out at 36%; in test [5] it was 6%; in test [2], 59%; in test [3] it was 35%. Further, the inhibition at 50 ppm in test [7] (50 ppm) is 22%; in test [5], 19%; in test [2], 86%; in test [3], 80%.

For the compound `CCc1nc(SC(C(=O)O)c2ccccc2)c(C#N)c2c1CCCC2` (stereo not drawn) [Formula Ia-xv, 2-((4-cyano-1-ethyl-5,6,7,8-tetrahydroisoquinolin-3-yl)thio)-2-phenylacetic acid], in test [4] (setting [8]), the pIC50 is 4.99. For the same compound, in test [1], the inhibition at 2 ppm came to 10% and the inhibition at 10 ppm turned out to be 48%.

As to `COc1ccc(-c2cc(-c3ccc[s+]3[O-])nc(OC(C(=O)O)c3ccccc3)c2C#N)cc1` (stereo not drawn) [Formula Ia-xxviii, 2-((3-cyano-4-(4-methoxyphenyl)-6-(1-oxidothiophen-2-yl)pyridin-2-yl)oxy)-2-phenylacetic acid], the pIC50 in test [4] (setting [8]) was 6.71. Besides, in test [5], the inhibition at 2 ppm was determined as 14% and the inhibition at 10 ppm amounted to 27%.

For orientation: inhibition means how much of the control response was suppressed. By pIC50 is commonly meant the negative decadic logarithm of the IC50, by convention in mol/L.

The values are drawn from patent US10548313B2, “Acetyl-CoA carboxylase modulators” (Monsanto Technology LLC, priority 2013, dated 2020).
